Measurements reported in a melting point compilation (Tetko et al.; mined from patent text by program, amines drawn as free bases though some values may be those of a salt).

Q: With `COc1ccccc1-c1csc(Nc2ccc(C)cn2)n1` as the compound, how does the melting point read?
A: 228 to 230 °C

Q: Which melting point does the source give for `COc1c(C#N)ccc2c1Cc1ccccc1CS2` here?
A: 117 to 118 °C

Q: With `Cc1ccc(N2C(=O)N(CC(=O)Nc3c(C(C)C)cccc3C(C)C)C(=O)C23CCC(O)CC3)cc1` (stereo not given) as the compound, how does the melting point read?
A: 142 to 144 °C

Q: With `COC(=O)c1ccc(C)c(-c2cc3cnc(NC4CCOCC4)nc3n(C)c2=O)c1` as the compound, how does the melting point read?
A: 122 to 126 °C

Q: For `COc1cc(C(O)c2cnc3ccccc3c2)ccc1OCc1ccccc1` (stereo not given), which melting point is on record?
A: 124 to 125 °C

Q: For `N#CCc1ccc(Cl)nc1`, which melting point is on record?
A: 80 °C

Q: Which melting point does the source give for `NNC(=O)c1ccc2[nH]ncc2c1` here?
A: 251 to 252 °C

Q: For `CC(=O)Nc1cc(Cl)c(Br)c(Cl)c1`, which melting point is on record?
A: 224 °C

Q: For `CCN(CC)C(=O)Oc1cc(-c2cccs2)nc2ccccc12`, which melting point is on record?
A: 72 °C

Q: For `CCCn1c(=O)c2c(nc(C=Cc3ccc(C(=O)O)cc3OC)n2C)n(CCC)c1=O`, which melting point is on record?
A: 285 to 286 °C

Q: With `CC1C(=O)N(CC(N)=O)C(C)(C)N1C(=O)CN` (stereo not given) as the compound, how does the melting point read?
A: 118 °C

Q: With `Cc1ccc(S(=O)(=O)NC(=O)Nc2ccc(Br)c(C)c2)cc1` as the compound, how does the melting point read?
A: 178 to 180 °C

Q: With `CC1(C)C(=O)Nc2cc(C(=O)Nc3cccc(N)c3)ccc21` as the compound, how does the melting point read?
A: 244 to 245 °C

Q: With `CCCN1C(=O)OC2(CCN(CC=C(c3ccc(F)cc3)c3ccc(F)cc3)CC2)C1(C)O` (stereo not given) as the compound, how does the melting point read?
A: 128 to 129 °C

Q: With `CN(C)c1ccc(C(=O)C(F)(F)c2cccc(Cl)c2)cc1` as the compound, how does the melting point read?
A: 104 to 108 °C

Q: Which melting point does the source give for `CC(C)(C)OC(=O)N1CCN(c2cccc3ccoc23)CC1` here?
A: 98 to 100 °C

Q: For `O=C(Cc1ccc(CN2CCCC2)cc1)NCc1ccc(Br)cc1`, which melting point is on record?
A: 107 to 109 °C

Q: For `CCOC(=O)Nc1ccc(Br)cc1F`, which melting point is on record?
A: 72 to 73 °C

Q: With `COc1ccc(C2=N[C@H](c3ccccc3)[C@@H](OC(=O)Oc3ccc([N+](=O)[O-])cc3)CO2)cc1` (racemic) as the compound, how does the melting point read?
A: 164 °C

Q: With `COc1ccc(C(=O)c2c(Cl)cc(Cl)cc2Cl)cc1Cc1ccc(=O)[nH]n1` as the compound, how does the melting point read?
A: 179 to 180 °C

Q: With `CCOC(=O)n1nc(S(=O)(=O)Nc2c(Cl)cccc2Cl)nc1NC` as the compound, how does the melting point read?
A: 202 to 203 °C

Q: With `O=C(O)Cc1cscc1Nc1c(Cl)cccc1Cl` as the compound, how does the melting point read?
A: 179 to 180 °C

Q: Which melting point does the source give for `CSc1nnc(-c2cc(C(C)(C)C)c(O)c(C(C)(C)C)c2)s1` here?
A: 122 °C

Q: For `CC(=O)N[C@@H](CSC(=O)c1ccccc1)C(=O)NCCSC(=O)C(C)C`, which melting point is on record?
A: 137 to 138 °C

Q: For `CCCCCN1C(=O)C(NC(=O)C2CCc3ccccc3C2)c2ccccc21` (stereo not given), which melting point is on record?
A: 127 to 132 °C

Q: Which melting point does the source give for `Fc1cc(F)cc(-c2cccc3[nH]c4c(c23)CCN(Cc2ccccc2)CC4)c1` here?
A: 172 to 175 °C

Q: With `COc1cc(-c2ccc(-c3ccc(N)c(OC)c3)o2)ccc1N` as the compound, how does the melting point read?
A: 188 to 190 °C

Q: With `Cc1ccc(S(=O)(=O)O[C@H](C)C(=O)N2C(=O)N(C)C[C@H]2C(=O)OC(C)(C)C)cc1` as the compound, how does the melting point read?
A: 78 to 80 °C

Q: Which melting point does the source give for `C=CCN(CC=C)C(=O)n1cnc(S(=O)C(C)C)n1` (stereo not given) here?
A: 32 to 34 °C

Q: With `COc1ccc(Oc2ccc3c(c2)C=C(C(=O)O)C(C(F)(F)F)O3)cc1Cl` (stereo not given) as the compound, how does the melting point read?
A: 205 to 207 °C

Q: With `CSC1Oc2ccccc2C1=O` (stereo not given) as the compound, how does the melting point read?
A: 81 to 82 °C

Q: With `COCC(=O)OC(=C1C(=O)N(C(N)=O)c2cc(Cl)c(F)cc21)c1cccs1` as the compound, how does the melting point read?
A: 199 to 200 °C

Q: Which melting point does the source give for `O=S(c1ncccn1)c1cccc2cccnc12` (stereo not given) here?
A: 152 to 155 °C

Q: For `CCCOc1ccc(S(=O)(=O)N2CCN(CCOC(=O)c3ccccc3)CC2)cc1-c1nc2c(CCC)cn(CC)c2c(=O)[nH]1`, which melting point is on record?
A: 78 to 79 °C

Q: With `O=C(O)c1ccc(CCCCCc2ccccc2)cc1` as the compound, how does the melting point read?
A: 80 to 80.5 °C

Q: Which melting point does the source give for `O=C1Nc2ccccc2C12CCC2` here?
A: 140 to 145 °C

Q: Which melting point does the source give for `CCCCCCCCCCCCc1ccc(S(=O)(=O)Nc2nnc(CO)s2)cc1` here?
A: 138 to 139 °C

Q: Which melting point does the source give for `CC(C)(N)c1ccc(C(=O)Nc2cn3cc(Cl)ccc3n2)cc1` here?
A: 235 to 237 °C

Q: Which melting point does the source give for `O=C(NC(Cc1ccccc1)C(=O)O)c1ccc(-c2ccccc2OC2OC(CO)C(O)C(O)C2O)cc1` (stereo not given) here?
A: 116 to 119 °C

Q: With `Cc1cc(-c2noc(C(F)(F)F)n2)cc(C)c1OCCCc1ccc(Cl)nc1` as the compound, how does the melting point read?
A: 89 to 91 °C
